In US20040180082A1, “Submicron-liposome containing triterpenoid and a method for preparing the same” (AMOREPACIFIC CORPORATION, priority 2002, published 2004):

Experiment: Wide angle X-ray diffraction of frozen-dried liposome
Type: physicochemical
Conditions: 2θ value at maximum diffraction no more increasing; FIGS. 2 and 3
Experimental: The structures and the crystallinities (crystalline property) of the liposome were analyzed with powder XRD equipped with wide-angle diffractometer (Rigaku/USA, D/max-RB) using Cu-Kα (λ=1.54 Å) ray. The oleanolic acid (OA) and liposome prepared in Examples 1, 3, 4, 5 and 6 and frozen-dried were analyzed by X-ray diffraction in wide-angle (θ=2-50°), and the structures of hydrocarbon chains and the molecular distances of oleanolic acid (OA) crystals were determined by the result of the X-ray diffraction. […] Diffractions in a wide range of near 20° were observed because lipids formed smectic (lamellar) liquid-crystal phase, which correspond to the distances between lipid molecules.

Question: With `CC1(C)CC[C@]2(C(=O)O)CC[C@]3(C)C(=CC[C@@H]4[C@@]5(C)CC[C@H](O)C(C)(C)[C@@H]5CC[C@]43C)[C@@H]2C1` [OA, oleanolic acid] as the compound, how does the “content of OA at which OA is saturated in the bi-layer of the liposome” value read?
Answer: The value was 25.4 mole %.
